Reference: the NIST ThermoML archive (doi:10.1021/acs.jced.5b00246)
Where “and” joins values, the source holds several entries; their conditions need not be identical. Equal values may be shown once.

Conditions: 101.33 kPa, Liquid, NMR spin-echo technique

C1COCCO1 [1,4-dioxane]
Conditions | self diffusion coefficient [m2/s]
288.31 K | 9.1e-10
288.33 K | 8.97e-10
293.11 K | 1.03e-09
298.13 K | 1.1e-09
298.17 K | 1.12e-09
298.18 K | 1.09e-09
298.2 K | 1.13e-09
303.12 K | 1.24e-09
307.92 K | 1.3e-09
308.06 K | 1.32e-09
317.85 K | 1.55e-09
318.24 K | 1.57e-09
327.94 K | 1.79e-09
327.95 K | 1.81e-09
338.09 K | 2.15e-09
338.12 K | 2.09e-09
338.13 K | 2.11e-09
347.87 K | 2.37e-09
347.97 K | 2.43e-09
358.25 K | 2.66e-09
358.49 K | 2.66e-09

CC(C)CCCC(C)CCCC(C)CCCCC(C)CCCC(C)CCCC(C)C (stereo not given) [2,6,10,15,19,23-hexamethyltetracosane]
Conditions | self diffusion coefficient [m2/s]
270.4 K | 5.32e-12
273 K | 6.72e-12
283.3 K | 1.34e-11
283.6 K | 1.32e-11
288.28 K | 1.81e-11
293.13 K | 2.19e-11
293.19 K | 2.26e-11
298 K | 2.79e-11
298.19 K | 2.88e-11
298.44 K | 2.91e-11
303 K | 3.57e-11
303.18 K | 3.69e-11
312.99 K | 5.7e-11
314.3 K | 5.7e-11
322.69 K | 8.15e-11
322.72 K | 8.24e-11
323.16 K | 8.12e-11
325.7 K | 8.83e-11
333.03 K | 1.17e-10
333.49 K | 1.14e-10
334.8 K | 1.18e-10
342.81 K | 1.5e-10
344.9 K | 1.6e-10
348.2 K | 1.74e-10
352.82 K | 1.96e-10
353.15 K | 1.98e-10
362.6 K | 2.44e-10
362.82 K | 2.5e-10
362.88 K | 2.6e-10

CCCCC(CC)COC(=O)c1ccccc1C(=O)OCC(CC)CCCC (stereo not given) [bis(2-ethylhexyl) 1,2-benzenedicarboxylate]
Conditions | self diffusion coefficient [m2/s]
268 K | 1.31e-12
273 K | 2.05e-12
283 K | 4.57e-12
298.1 K | 1.24e-11
303.18 K | 1.71e-11
303.2 K | 1.86e-11
312.89 K | 2.91e-11
313.2 K | 3.05e-11
322.7 K | 4.5e-11
322.84 K | 4.53e-11
322.88 K | 4.53e-11
323.03 K | 4.57e-11
323.05 K | 4.57e-11
323.1 K | 4.73e-11
332.7 K | 6.93e-11
333.16 K | 6.74e-11
333.2 K | 6.78e-11
342.5 K | 9.48e-11
343.65 K | 9.74e-11
343.7 K | 9.79e-11
352.86 K | 1.3e-10
352.88 K | 1.31e-10
362.72 K | 1.69e-10
362.75 K | 1.72e-10

C1CCCCC1 [cyclohexane]
Conditions | self diffusion coefficient [m2/s]
283.47 K | 1.07e-09
283.53 K | 1.09e-09
288.31 K | 1.19e-09
288.32 K | 1.2e-09
298.12 K | 1.46e-09
298.15 K | 1.47e-09
308.02 K | 1.73e-09
308.03 K | 1.76e-09
308.16 K | 1.71e-09
308.17 K | 1.72e-09
317.68 K | 2.03e-09
317.73 K | 2.08e-09
318.22 K | 2.05e-09
318.25 K | 2.05e-09
323.04 K | 2.23e-09
328.13 K | 2.47e-09
328.15 K | 2.47e-09
333.02 K | 2.6e-09
333.05 K | 2.65e-09
342.79 K | 2.97e-09
348.16 K | 3.25e-09

C[S+](C)[O-] [dimethyl sulfoxide]
Conditions | self diffusion coefficient [m2/s]
293.09 K | 6.55e-10
298.26 K | 7.46e-10
298.29 K | 7.45e-10
308.1 K | 9.1e-10
318.03 K | 1.12e-09
328.1 K | 1.34e-09
338.12 K | 1.59e-09
348.17 K | 1.84e-09
363.71 K | 2.29e-09

CCCCCCCCCCCC [dodecane]
Conditions | self diffusion coefficient [m2/s]
264.14 K | 3.95e-10
266.5 K | 4.2e-10
268.03 K | 4.37e-10
278.2 K | 5.59e-10
278.52 K | 5.63e-10
278.56 K | 5.64e-10
278.72 K | 5.66e-10
288.09 K | 6.97e-10
288.49 K | 7.03e-10
288.52 K | 7.03e-10
298.15 K | 8.56e-10
298.2 K | 8.57e-10
298.21 K | 8.57e-10
308.15 K | 1.03e-09
308.16 K | 1.04e-09
318.15 K | 1.22e-09
318.16 K | 1.23e-09
323.17 K | 1.33e-09
328.17 K | 1.43e-09
328.22 K | 1.44e-09
328.25 K | 1.47e-09
333.14 K | 1.54e-09
337.93 K | 1.67e-09
337.97 K | 1.66e-09
337.99 K | 1.67e-09
348.08 K | 1.92e-09
352.75 K | 2.07e-09
352.77 K | 2.04e-09
364.53 K | 2.44e-09
364.54 K | 2.41e-09

CCCCCO [pentan-1-ol]
Conditions | self diffusion coefficient
253.13 K | 5.27e-11 m2/s
253.19 K | 5.32e-11 m2/s
258.42 K | 6.61e-11 m2/s
258.47 K | 6.61e-11 m2/s
263.25 K | 8.06e-11 m2/s
263.28 K | 8.11e-11 m2/s
268.65 K | 1.01e-10 m2/s
268.66 K | 1.02e-10 m2/s
278.4 K | 1.51e-10 m2/s
278.43 K | 1.52e-10 m2/s
288.31 K | 2.17e-10 m2/s
288.33 K | 2.17e-10 m2/s
298.16 K | 3.01e-10 m2/s
298.17 K | 3e-10 m2/s
298.19 K | 2.99e-10 m2/s
298.21 K | 3.02e-10 m2/s
298.27 K | 3.02e-10 m2/s
308.09 K | 4.13e-10 m2/s
308.11 K | 4.14e-10 m2/s
318.08 K | 5.54e-10 m2/s
318.09 K | 5.56e-10 m2/s
323.1 K | 6.39e-10 m2/s
323.15 K | 6.43e-10 m2/s
327.86 K | 7.3e-10 m2/s and 7.36e-10 m2/s
337.71 K | 9.56e-10 m2/s
337.74 K | 9.49e-10 m2/s
347.21 K | 1.22e-09 m2/s
347.25 K | 1.22e-09 m2/s
352.35 K | 1.4e-09 m2/s
352.36 K | 1.4e-09 m2/s
352.55 K | 1.41e-09 m2/s
364.52 K | 1.84e-09 m2/s
364.59 K | 1.83e-09 m2/s
364.73 K | 1.83e-09 m2/s

Cc1ccccc1 [toluene]
Conditions | self diffusion coefficient
239.09 K | 7.12e-10 m2/s
240.94 K | 7.53e-10 m2/s
248.57 K | 8.98e-10 m2/s
251.71 K | 9.77e-10 m2/s
253.27 K | 1.01e-09 m2/s
253.28 K | 1.01e-09 m2/s
258.16 K | 1.13e-09 m2/s
258.23 K | 1.13e-09 m2/s
263.51 K | 1.24e-09 m2/s
268.32 K | 1.38e-09 m2/s
273.43 K | 1.5e-09 m2/s
273.54 K | 1.52e-09 m2/s
278.07 K | 1.67e-09 m2/s
278.15 K | 1.67e-09 m2/s
288.05 K | 1.98e-09 m2/s
293.08 K | 2.13e-09 m2/s
298 K | 2.3e-09 m2/s
298.18 K | 2.27e-09 m2/s
298.2 K | 2.32e-09 m2/s
298.21 K | 2.28e-09 m2/s and 2.3e-09 m2/s
308.07 K | 2.71e-09 m2/s
322.69 K | 3.15e-09 m2/s
323.16 K | 3.32e-09 m2/s
323.18 K | 3.3e-09 m2/s
332.93 K | 3.56e-09 m2/s
333.16 K | 3.56e-09 m2/s
343.45 K | 4.09e-09 m2/s
